Format in all cases: in vivo
The test system of assay [1] is Pennsylvania Smartweed. The assay can be described thus: Pre-emergent herbicidal activity (Table A). The settings on record: pre-emergence, Pesw, 11.2 kg/ha, 10-14 days, read-out: herbicidal rating (% inhibition). In outline:
(§1)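 Seeds or vegetative propagules were set on topsoil compacted to 0.95 to 1.27 cm below the pan rim, then covered with soil thoroughly mixed with a known amount of test compound in acetone or water carrier. Ratings follow a scale of percent inhibition per species.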

Assay [2] relates to Canada thistle. The assay can be described thus: Pre-emergent herbicidal activity (Table A). The settings on record: Cirsium arvense, pre-emergence, Cath, 11.2 kg/ha, 10-14 days, read-out: herbicidal rating (% inhibition). In outline: as §1
The test system of assay [3] is Quackgrass. The assay can be described thus: Pre-emergent herbicidal activity (Table A). The settings on record: pre-emergence, Rhqg, 11.2 kg/ha, 10-14 days, read-out: herbicidal rating (% inhibition). The procedure, abridged: as §1
The test system of assay [4] is Common Lambsquarters. Put plainly: Pre-emergent herbicidal activity (Table A). Conditions: Chenopodium album, pre-emergence, Colq, 11.2 kg/ha, 10-14 days, read-out: herbicidal rating (% inhibition). The procedure, abridged:
as §1

Assay [5] has as its system Rhizome Johnsongrass. The assay can be described thus: Pre-emergent herbicidal activity (Table A). The settings on record: Sorghum halepense, pre-emergence, Rhjg, 11.2 kg/ha, 10-14 days, read-out: herbicidal rating (% inhibition). The procedure, abridged:
as §1

The subject of assay [6] is Pesw. The assay can be described thus: plant injury after spraying emerged plants (Table D). Also noted: scale not given here. The procedure, abridged: (§2)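 Greenhouse post-emergence test: plants grown in silt loam (some with fertilizer) to 1–3 true leaf stage (9–14 days), sprayed at 170.3 kPa with emulsifier-containing solution at 1870 L/Ha delivering stated rates. Injury versus unsprayed controls scored after ~10–14 days (usually 11).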

Assay [7] concerns Sube. The description is as above. Also noted: scale not given here. In outline: as §2
Assay [8] has as its system Colq. The description is as above. Also noted: scale not given here. In outline:
as §2

Assay [9] deals with Cocw. Described as above. Also noted: scale not given here. The procedure, abridged:
as §2

Several values for one entry are separate records, joined by “and”; a condition that tells them apart may be missing. Equal values may be shown once.

Regarding `COC(=O)c1c(O)nc(C(F)(F)F)c(C(=O)OC)c1CC(C)C` [Compound 1, 3,5-pyridinedicarboxylic acid, 2-hydroxy-4-(2-methylpropyl)-6-(trifluoromethyl)-, dimethyl ester], the inhibition at 11200 g/ha in [1], in [2], in [3], in [4] and in [5] was 0 to 24% in each case.

For the compound `COC(=O)c1c(OC)nc(C(F)(F)Cl)c(C(=O)OC)c1CC(C)C` [Compound 30, 3,5-pyridinedicarboxylic acid, 2-(chlorodifluoromethyl)-6-methoxy-4-(2-methylpropyl)-, dimethyl ester], the inhibition at 11200 g/ha in assay [1], in assay [2], in [3], in assay [4] and in [5] was 75 to 100% in each case. For the same compound, the “plant injury rating, Pesw” value in assay [6] (0.5605 kg/ha) is reported as 0; in assay [6] (1.1210 kg/ha), 0; in assay [6] (2.8025 kg/ha), 1; in assay [6] (5.6050 kg/ha), 1; in [6] (8.4075 kg/ha), 1; in [6] (11.2100 kg/ha), 1. Further, the “plant injury rating, Sube” value in assay [7] (0.5605 kg/ha) is given as 0; in assay [7] (1.1210 kg/ha), 1; in [7] (2.8025 kg/ha), 1; in assay [7] (5.6050 kg/ha) it was 1; in assay [7] (8.4075 kg/ha), 1; in assay [7] (11.2100 kg/ha), 1. For the same compound, the “plant injury rating, Colq” value in [8] (0.5605 kg/ha) is given as 0; in assay [8] (1.1210 kg/ha) it was 0; in [8] (2.8025 kg/ha) it was 1; in assay [8] (5.6050 kg/ha) it was 1; in [8] (8.4075 kg/ha) it was 1; in [8] (11.2100 kg/ha), 2.

For the compound `COC(=O)c1c(OC)nc(C(F)(F)F)c(C2=NCCS2)c1CC(C)C` [Compound 50, 3-pyridinecarboxylic acid, 5-(4,5-dihydro-2-thiazolyl)-2-methoxy-4-(2-methylpropyl)-6-(trifluoromethyl)-, methyl ester], the inhibition at 11200 g/ha in assay [1], in [2], in assay [3], in [4] and in assay [5] was 75 to 100% each time.

With `COC(=O)c1c(OC)nc(C(F)(F)F)c(N=CSC)c1CC(C)C` [Compound 77, 3-pyridinecarboxylic acid, 2-methoxy-4-(2-methylpropyl)-5-[[(methylthio)methylene]amino]-6-(trifluoromethyl)-, methyl ester], the inhibition at 11200 g/ha in assay [1], in assay [2], in assay [3], in [4] and in assay [5] was 75 to 100% each time. In addition, the “plant injury rating, Pesw” value in assay [6] (1.1210 kg/ha) is 0; in assay [6] (2.8025 kg/ha), 0; in assay [6] (5.6050 kg/ha) it was 0; in [6] (11.2100 kg/ha), 2 and 1. Further, the “plant injury rating, Sube” value in assay [7] (1.1210 kg/ha) is 1; in assay [7] (2.8025 kg/ha) it was 2; in [7] (5.6050 kg/ha), 2 and 1; in assay [7] (11.2100 kg/ha), 2. The “plant injury rating, Colq” value in [8] (1.1210 kg/ha) was 3 and 2; in assay [8] (2.8025 kg/ha), 3 and 2; in assay [8] (5.6050 kg/ha), 2 and 3; in [8] (11.2100 kg/ha), 2 and 3.

Consider `COC(=O)c1c(OC)nc(C(F)(F)F)c(C(=O)Cl)c1CC1CC1` [Compound 113, 3-pyridinecarboxylic acid, 5-(chlorocarbonyl)-4-(cyclopropylmethyl)-2-methoxy-6-(trifluoromethyl)-, methyl ester], for which the “plant injury rating, Cocw” value in assay [9] (0.2803 kg/ha) and in [9] (5.6050 kg/ha) was 0 throughout.

For the compound `COC(=O)c1c(OC)nc(C(F)(F)F)c(C(=O)n2cccn2)c1CC1CC1` [Compound 116, 3-pyridinecarboxylic acid, 4-(cyclopropylmethyl)-2-methoxy-5-(1H-pyrazo1-1-ylcarbonyl)-6-(trifluoromethyl)-, methyl ester], the “plant injury rating, Cocw” value stood at 0 in [9] (0.0701 kg/ha), 1 in assay [9] (0.2803 kg/ha), 2 in assay [9] (1.1210 kg/ha) and 2 in assay [9] (5.6050 kg/ha).

For `COC(=O)c1c(OC)nc(C(F)(F)F)c(C(=O)SC)c1C1CCC1` [Compound 137, 3-pyridinecarboxylic acid, 4-cyclobuty1-2-methoxy-5-[(methylthio)carbonyl]-6-(trifluoromethyl)-, methyl ester], the “plant injury rating, Cocw” value worked out at 2 in [9] (0.2803 kg/ha), 3 in assay [9] (1.1210 kg/ha) and 3 in assay [9] (5.6050 kg/ha).

On to `COC(=O)c1c(OC)nc(C(F)(F)F)c(C(=O)n2ccc(F)n2)c1C1CCC1` [Compound 140, 3-pyridinecarboxylic acid, 4-cyclobuty1-5-[(3-fluoro-1H-pyrazo1-1-yl)carbonyl]-2-methoxy-6-(trifluoromethyl)-, methyl ester], for which the “plant injury rating, Cocw” value was found to be 2 in assay [9] (0.2803 kg/ha), 2 in [9] (1.1210 kg/ha) and 3 in assay [9] (5.6050 kg/ha).

These data come from patent US5391540A, “Substituted pyridine compounds” (Rohm and Haas Company, priority 1993, dated 1995).
